# Results from patent publication US20250304928A1, “AN OMEGA-TRANSAMINASE MUTANT BASED ON […] SEQUENCE RECONSTRUCTION” (priority 2021, published 2025).
# What was measured:
# [1] = test system: C[C@@H](N)c1ccccc1; test: Enzyme kinetic parameters of mutant ω-transaminase Ancata-101; type: biochemical, Aspergillus terreus; settings: other: PBS 50 mM, pH 8.0, 0.01 mM PLP
# [2] = test system: CC(=O)C(=O)O; test: as above; type: biochemical, Aspergillus terreus; settings: other: PBS 50 mM, pH 8.0, 0.01 mM PLP
# [3] = test system: C[C@@H](N)c1ccccc1; test: Enzyme kinetic parameters of mutant ω-transaminase Ancata-124; type: biochemical, Aspergillus terreus; settings: other: PBS 50 mM, pH 8.0, 0.01 mM PLP, 25.0 °C
# [4] = test system: CC(=O)C(=O)O; test: as above; type: biochemical, Aspergillus terreus; settings: other: PBS 50 mM, pH 8.0, 0.01 mM PLP, 25.0 °C
# [5] = target: T1, Aspergillus terreus ω-transaminase mutant Ancata-124 (D5E-A12Q-I17V-S20A-T21S-E22A-T23S-A42H-I77L-T78S-T85A-R90K-D96E-Q97E-E104D-T130S-R130K-I135L-138insN-V143I (Aspergillus terreus, UniProt Q0C8G1, A12Q/A195S/A246V/A313P/A42H/D153E/D5E/D96E/E104D/E22A/E248R/E323S/F250N/F258V/G292D/H210N/I135L/I17V/I295V/I77L/INS138N/INS325KS/L263M/M154V/M288K/N245D/N322E/N325S/Q236E/Q294K/Q97E/R131K/R266Q/R324A/R90K/S20A/T130S/T21S/T23S/T284S/T78S/T85A/V143I/V157T/V162I/V163I)); test: as above; type: biochemical
# T1 construct: ancestral reconstruction Ancata-124
# Protocol: (§1) The enzyme activity of wild type and mutant ω-transaminase at different concentrations was determined by enzyme activity assay. The reaction rates V for different substrates as well as different substrate concentrations [S] were brought into the Michaelis-Menten equation V=Vmax×[S]/(Km+[S]), nonlinear curve fit was performed using Origin 8.0 software, and the enzyme kinetic parameters Km and Vmax were calculated for wild type and mutants; the conversion number kcat and catalytic efficiency kcat/Km were calculated for wild type and mutants from the equation kcat=Vmax/[E], where [E] was the molar concentration of the enzyme.
# [6] = target: T2, Aspergillus terreus ω-transaminase mutant Ancata-101 (D5E-A12Q-I17V-S20A-T21S-E22A-T23S-A42H-I77L-T78S-T85S-L87M-R90K-D96E-Q97E-E104D-T130S-R131K-D134E-I135L-13 (Aspergillus terreus, UniProt Q0C8G1, A12Q/A174S/A195S/A246V/A313P/A42H/D134E/D153E/D5E/D96E/E104D/E22A/E248R/E323S/F250N/F258V/G292D/H210N/I135L/I175M/I17V/I295V/I77L/INS138N/INS325KKSG/L87M/M288K/N245D/N322E/N325S/Q236E/Q294K/Q97E/R131K/R266Q/R324A/R90K/S20A/T130S/T21S/T23S/T284S/T78S/T85S/V143I/V157T/V162I/V163I/V188T)); test: Enzyme kinetic parameters of mutant ω-transaminase Ancata-101; type: biochemical
# T2 construct: ancestral reconstruction Ancata-101
# Protocol: as §1
# [7] = target: Aspergillus terreus ω-transaminase, wild type (WT-AT), SEQ ID NO. 2 (Aspergillus terreus, UniProt Q0C8G1); test: Enzyme kinetic parameters of wild type ω-transaminase (WT-AT); type: biochemical; settings: PBS 50 mM, pH 8.0, 0.01 mM PLP
# Protocol: The wild-type ω-transaminase from Aspergillus terreus has an amino acid sequence as shown in SEQ ID NO. 2, and has a gene sequence as shown in SEQ ID NO. 1.
# as §1
compound,measurement,setting,value
"Aspergillus terreus ω-transaminase mutant Ancata-101 (D5E-A12Q-I17V-S20A-T21S-E22A-T23S-A42H-I77L-T78S-T85S-L87M-R90K-D96E-Q97E-E104D-T130S-R131K-D134E-I135L-138insN-V143I-D153E-V157T-V162I-V163I-A174S-I175M-V188T-A195S-H210N-Q236E-N245D-A246V-E248R-F250N-F258V-R266Q-T284S-M288K-G292D-Q294K-I295V-A313P-N322E-E323S-R324A-N325S-325insKKSG), SEQ ID NO. 4 (Aspergillus terreus NIH2624; A12Q/A174S/A195S/A246V/A313P/A42H/D134E/D153E/D5E/D96E/E104D/E22A/E248R/E323S/F250N/F258V/G292D/H210N/I135L/I175M/I17V/I295V/I77L/INS138N/INS325KKSG/L87M/M288K/N245D/N322E/N325S/Q236E/Q294K/Q97E/R131K)",Km,[1],280 ± 30 µM
same,Km,[2],1150 ± 20 µM
"Aspergillus terreus ω-transaminase mutant Ancata-124 (D5E-A12Q-I17V-S20A-T21S-E22A-T23S-A42H-I77L-T78S-T85A-R90K-D96E-Q97E-E104D-T130S-R130K-I135L-138insN-V143I-D153E-M154V-V157T-V162I-V163I-A195S-H210N-Q236E-N245D-A246V-E248R-F250N-F258V-L263M-R266Q-T284S-M288K-G292D-Q294K-I295V-A313P-N322E-E323S-R324A-N325S-325insKS), SEQ ID NO. 6 (Aspergillus terreus NIH2624; A12Q/A195S/A246V/A313P/A42H/D153E/D5E/D96E/E104D/E22A/E248R/E323S/F250N/F258V/G292D/H210N/I135L/I17V/I295V/I77L/INS138N/INS325KS/L263M/M154V/M288K/N245D/N322E/N325S/Q236E/Q294K/Q97E/R131K/R266Q/R324A/)",Km,[3],280 ± 10 µM
same,Km,[4],930 ± 10 µM
"CC(=O)C(=O)O [pyruvate, pyruvic acid]",kcat (pyruvate),"[5]; PBS 50 mM, pH 8.0, 0.01 mM PLP",0.74 ± 0.03 s⁻¹
same,kcat/Km (pyruvate),"[5]; PBS 50 mM, pH 8.0, 0.01 mM PLP",790 M⁻¹ s⁻¹
same,catalytic efficiency for pyruvic acid compared with wild type,"[5]; in words, versus wild type",lower than that of the wild type
same,kcat (pyruvate),"[6]; PBS 50 mM, pH 8.0, 0.01 mM PLP",1.50 ± 0.03 s⁻¹
same,kcat/Km (pyruvate),"[6]; PBS 50 mM, pH 8.0, 0.01 mM PLP",1300 M⁻¹ s⁻¹
same,catalytic efficiency for pyruvic acid compared with wild type,"[6]; in words, versus wild type",lower than that of the wild type
same,kcat (pyruvate),[7],0.50 ± 0.01 s⁻¹
same,kcat/Km (pyruvate),[7],2220 M⁻¹ s⁻¹
same,Km,[7]; read-out: Km (pyruvate),230 ± 20 µM
"C[C@@H](N)c1ccccc1 [α-MBA, (R)-(+)-α-methylbenzylamine]",Km (α-MBA) compared with wild type,"[5]; in words, versus wild type",slightly higher than that of the wild type
same,Km (α-MBA) compared with wild type,"[6]; in words, versus wild type",slightly higher than that of the wild type
